Measurements reported in US9725442B2, “Heterocyclic derivative having PGD2 receptor antagonist activity” (Shionogi & Co., Ltd., priority 2011, dated 2017).
Read-outs that look alike come from different tables or passages of the source.

Columns and labels:
[1] = Metabolism stability test; format: in vitro ADME; details: human liver microsomes, 30 minutes, 37° C., NADPH, 0.5 μmol/L of the compound
Procedure: Using a commercially available pooled human hepatic microsomes, a compound of the present invention was reacted for a constant time, a remaining rate was calculated by comparing a reacted sample and an unreacted sample, thereby, a degree of metabolism in liver was assessed.
A reaction was performed (oxidative reaction) at 37° C. for 0 minute or 30 minutes in the presence of 1 mmol/L NADPH in 0.2 mL of a buffer (50 mmol/L Tris-HCl pH 7.4, 150 mmol/L potassium chloride, 10 mmol/L magnesium chloride) containing 0.5 mg protein/mL of human liver microsomes. After the reaction, 50 μL of the reaction mixture was added to 100 μL of a methanol/acetonitrile=1/1 (v/v), mixed and centrifuged at 3000 rpm for 15 minutes. The compound of the present invention in the supernatant was quantified by LC/MS/MS, and a remaining amount of the compound of the present invention after the reaction was calculated, letting a compound amount at 0 minute reaction time to be 100%. Glucuronidation reaction was in the presence of 5 mM UDP-glucuronic acid in place of NADPH, followed by similar operations.

CRTH2 [2] = target: T1, CRTH2 (Homo sapiens (Human), UniProt Q9Y5Y4); assay: CRTH2 receptor binding inhibitory activity ([3H]-PGD2 displacement, membranes of CRTH2-expressing K562 cell); details: [3H]-PGD2 displacement, membrane of CRTH2-expressing K562 cell, read-out: Ki
T1 sequence (Q9Y5Y4 whole entry): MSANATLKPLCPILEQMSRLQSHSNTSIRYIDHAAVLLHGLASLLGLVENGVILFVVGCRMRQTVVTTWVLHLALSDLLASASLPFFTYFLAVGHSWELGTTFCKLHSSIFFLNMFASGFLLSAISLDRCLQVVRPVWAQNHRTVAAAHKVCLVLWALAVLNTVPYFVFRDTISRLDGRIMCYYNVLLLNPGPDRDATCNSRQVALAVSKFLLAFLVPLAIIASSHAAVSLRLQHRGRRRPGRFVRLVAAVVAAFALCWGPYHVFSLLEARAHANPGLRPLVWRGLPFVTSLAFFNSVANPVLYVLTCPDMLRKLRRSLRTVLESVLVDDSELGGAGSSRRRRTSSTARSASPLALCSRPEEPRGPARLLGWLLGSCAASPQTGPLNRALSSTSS
Outline: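 CRTH2-expressing K562 membranes (20 μg/well) in 50 mM Tris/HCl pH 7.4 with 10 mM MgCl2 were incubated with [3H]-PGD2 for 60 min at room temperature, then filtered.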

Human DP1 receptor = Human DP1 receptor (Homo sapiens (Human), UniProt Q13258); assay: Human DP1 inhibitory activity in DP1-expressing cell (PGD2-induced cAMP); format: cell-based; details: category of cAMP IC50, human DP1 receptor expressing Jurkut cell
Sequence of Human DP1 receptor (Q13258 whole entry): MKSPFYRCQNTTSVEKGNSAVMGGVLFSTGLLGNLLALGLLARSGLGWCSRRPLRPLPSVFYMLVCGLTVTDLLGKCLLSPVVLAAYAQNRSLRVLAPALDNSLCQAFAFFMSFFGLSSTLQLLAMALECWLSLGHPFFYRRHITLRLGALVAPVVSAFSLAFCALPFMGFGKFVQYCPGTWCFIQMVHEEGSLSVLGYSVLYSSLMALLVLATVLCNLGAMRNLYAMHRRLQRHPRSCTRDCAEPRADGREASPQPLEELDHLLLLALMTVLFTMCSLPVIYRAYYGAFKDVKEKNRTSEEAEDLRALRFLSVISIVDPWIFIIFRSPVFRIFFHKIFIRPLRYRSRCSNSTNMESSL
Procedure: Compounds were categorized as AA (cAMP is less than 100 nM) and A (cAMP is more than 100 nM and less than 5000 nM) as shown in Table 99 and 100.

CYP2C9 = CYP2C9 (Homo sapiens (Human), UniProt P11712); assay: CYP inhibition test, tolbutamide methyl-hydroxylation; format: in vitro ADME; details: pooled human hepatic microsome, 100 μmol/L tolbutamide
Sequence of CYP2C9 (P11712 whole entry): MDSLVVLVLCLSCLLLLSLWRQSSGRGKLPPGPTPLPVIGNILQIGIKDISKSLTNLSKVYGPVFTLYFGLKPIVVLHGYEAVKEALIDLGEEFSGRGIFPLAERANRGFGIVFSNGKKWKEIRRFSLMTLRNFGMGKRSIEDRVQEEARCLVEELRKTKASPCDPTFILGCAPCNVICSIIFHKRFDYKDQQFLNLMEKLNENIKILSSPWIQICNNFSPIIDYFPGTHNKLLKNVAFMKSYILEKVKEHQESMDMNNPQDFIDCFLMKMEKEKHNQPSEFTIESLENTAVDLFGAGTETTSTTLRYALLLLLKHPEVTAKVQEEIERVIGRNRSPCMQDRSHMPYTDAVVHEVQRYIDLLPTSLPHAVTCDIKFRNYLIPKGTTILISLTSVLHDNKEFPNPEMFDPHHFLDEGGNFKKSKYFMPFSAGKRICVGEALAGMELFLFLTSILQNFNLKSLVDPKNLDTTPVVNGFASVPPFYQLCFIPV
Source text: (§1) Using commercially available pooled human hepatic microsome, and employing, as markers, 7-ethoxyresorufin O-deethylation (CYP1A2), tolbutamide methyl-hydroxylation (CYP2C9), mephenyloin 4′-hydroxylation (CYP2C19), dextromethorphan O-demethylation (CYP2D6), and terfenedine hydroxylation as typical substrate metabolism reactions of human main five CYP enzyme forms (CYP1A2, 2C9, 2C19, 2D6, 3A4), an inhibitory degree of each metabolite production amount by a compound of the present compound was assessed.
(§2) The reaction conditions were as follows: substrate, 0.5 μmol/L ethoxyresorufin (CYP1A2), 100 μmol/L tolbutamide (CYP2C9), 50 μmol/L S-mephenyloin (CYP2C19), 5 μmol/L dextromethorphan (CYP2D6), 1 μmol/L terfenedine (CYP3A4); reaction time, 15 minutes; reaction temperature, 37° C.; enzyme, pooled human hepatic microsome 0.2 mg protein/mL; concentration of a compound of the present invention, 1, 5, 10, 20 μmol/L (four points).
(§3) Each five kinds of substrates, human hepatic microsome, or a compound of the present invention in 50 mM Hepes buffer as a reaction mixture was added to a 96-well plate at the composition as described above, NADPH, as a cofactor was added to initiate metabolism reactions as markers and. After the incubation at 37° C. for 15 minutes, a methanol/acetonitrile=1/1 (v/v) solution was added to stop the reaction. After the centrifugation at 3000 rpm for 15 minutes, resorufin (CYP1A2 metabolite) in the supernatant was quantified by a fluorescent multilabel counter and tolbutamide hydroxide (CYP2C9 metabolite), mephenyloin 4′ hydroxide (CYP2C19 metabolite), dextrorphan (CYP2D6 metabolite), and terfenadine alcohol (CYP3A4 metabolite) were quantified by LC/MS/MS.

CYP1A2 = CYP1A2 (Homo sapiens (Human), UniProt P05177); assay: CYP inhibition test, 7-ethoxyresorufin O-deethylation; format: in vitro ADME; details: pooled human hepatic microsome, 0.5 μmol/L ethoxyresorufin
Sequence of CYP1A2 (P05177 whole entry): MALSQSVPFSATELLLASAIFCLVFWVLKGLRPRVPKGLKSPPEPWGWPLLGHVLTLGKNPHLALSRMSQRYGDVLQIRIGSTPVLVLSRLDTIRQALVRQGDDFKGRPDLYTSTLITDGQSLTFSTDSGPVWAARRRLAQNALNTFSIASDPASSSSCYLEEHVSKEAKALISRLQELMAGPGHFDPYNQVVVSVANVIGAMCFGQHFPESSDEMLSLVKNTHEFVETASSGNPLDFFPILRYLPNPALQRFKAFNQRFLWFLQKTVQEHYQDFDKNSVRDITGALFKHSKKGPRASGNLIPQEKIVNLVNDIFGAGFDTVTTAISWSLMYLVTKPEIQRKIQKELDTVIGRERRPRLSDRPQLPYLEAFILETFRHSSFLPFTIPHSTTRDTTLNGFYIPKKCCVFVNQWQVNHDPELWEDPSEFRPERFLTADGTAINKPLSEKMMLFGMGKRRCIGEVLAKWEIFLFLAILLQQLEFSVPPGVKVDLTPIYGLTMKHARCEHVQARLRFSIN
Source text: as §1, §2, §3

CYP2C19 = CYP2C19 (Homo sapiens (Human), UniProt P33261); assay: CYP inhibition test, mephenyloin 4'-hydroxylation; format: in vitro ADME; details: pooled human hepatic microsome, 50 μmol/L S-mephenyloin
Sequence of CYP2C19 (P33261 whole entry): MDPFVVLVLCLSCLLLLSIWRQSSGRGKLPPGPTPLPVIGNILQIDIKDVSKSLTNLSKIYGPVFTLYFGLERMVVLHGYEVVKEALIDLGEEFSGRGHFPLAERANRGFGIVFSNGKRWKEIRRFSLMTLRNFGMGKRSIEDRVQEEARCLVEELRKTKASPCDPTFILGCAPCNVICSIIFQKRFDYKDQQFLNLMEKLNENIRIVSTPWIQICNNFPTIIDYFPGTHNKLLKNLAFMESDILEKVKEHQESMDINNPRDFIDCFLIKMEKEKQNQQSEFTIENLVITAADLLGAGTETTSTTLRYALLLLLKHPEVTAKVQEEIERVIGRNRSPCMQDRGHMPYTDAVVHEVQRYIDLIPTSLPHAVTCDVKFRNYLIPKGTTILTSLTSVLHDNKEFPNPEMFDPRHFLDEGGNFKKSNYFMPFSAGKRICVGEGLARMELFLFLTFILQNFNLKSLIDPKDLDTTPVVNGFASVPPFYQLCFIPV
Source text: as §1, §2, §3

[3] = Solubility test (1% DMSO addition, artificial intestinal juice pH 6.8); format: physicochemical; details: fassgf or other biorelevant, kinetic from dmso stock, artificial intestinal juice pH 6.8, 16 hours at 25° C.
Procedure: A 10 mmol/L solution of the compound of the present invention is prepared with DMSO, and 6 μL of the compound solution is added to 594 μL of an artificial intestinal juice (water and 118 mL of 0.2 mol/L NaOH reagent are added to 250 mL of 0.2 mol/L potassium dihydrogen phosphate reagent to reach 1000 mL) with a pH of 6.8. The mixture is left standing for 16 hours at 25° C., and the mixture is vacuum-filtered. The filtrate is two-fold diluted with methanol/water=1/1 (V/V), and the compound concentration in the filtrate is measured with HPLC or LC/MS/MS by the absolute calibration method.

CYP2D6 = CYP2D6 (Homo sapiens (Human), UniProt P10635); assay: CYP inhibition test, dextromethorphan O-demethylation; format: in vitro ADME; details: pooled human hepatic microsome, 5 μmol/L dextromethorphan
Sequence of CYP2D6 (P10635 whole entry): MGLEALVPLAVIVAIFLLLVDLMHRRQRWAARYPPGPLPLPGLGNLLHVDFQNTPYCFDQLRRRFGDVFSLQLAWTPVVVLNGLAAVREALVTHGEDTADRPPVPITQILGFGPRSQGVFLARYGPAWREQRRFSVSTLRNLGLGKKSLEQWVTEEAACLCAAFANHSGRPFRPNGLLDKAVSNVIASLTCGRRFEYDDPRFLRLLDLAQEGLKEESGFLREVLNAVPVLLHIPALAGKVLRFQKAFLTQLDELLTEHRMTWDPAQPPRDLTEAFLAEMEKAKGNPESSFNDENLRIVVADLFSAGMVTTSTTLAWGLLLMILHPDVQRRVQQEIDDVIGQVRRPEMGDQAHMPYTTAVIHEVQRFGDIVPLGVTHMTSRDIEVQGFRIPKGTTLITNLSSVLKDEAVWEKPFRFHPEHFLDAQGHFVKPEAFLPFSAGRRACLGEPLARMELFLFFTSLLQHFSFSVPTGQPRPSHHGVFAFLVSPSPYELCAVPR
Source text: as §1, §2, §3

CYP3A4 = CYP3A4 (Homo sapiens (Human), UniProt P08684); assay: CYP inhibition test, terfenedine hydroxylation; format: in vitro ADME; details: pooled human hepatic microsome, 1 μmol/L terfenedine
Sequence of CYP3A4 (P08684 whole entry): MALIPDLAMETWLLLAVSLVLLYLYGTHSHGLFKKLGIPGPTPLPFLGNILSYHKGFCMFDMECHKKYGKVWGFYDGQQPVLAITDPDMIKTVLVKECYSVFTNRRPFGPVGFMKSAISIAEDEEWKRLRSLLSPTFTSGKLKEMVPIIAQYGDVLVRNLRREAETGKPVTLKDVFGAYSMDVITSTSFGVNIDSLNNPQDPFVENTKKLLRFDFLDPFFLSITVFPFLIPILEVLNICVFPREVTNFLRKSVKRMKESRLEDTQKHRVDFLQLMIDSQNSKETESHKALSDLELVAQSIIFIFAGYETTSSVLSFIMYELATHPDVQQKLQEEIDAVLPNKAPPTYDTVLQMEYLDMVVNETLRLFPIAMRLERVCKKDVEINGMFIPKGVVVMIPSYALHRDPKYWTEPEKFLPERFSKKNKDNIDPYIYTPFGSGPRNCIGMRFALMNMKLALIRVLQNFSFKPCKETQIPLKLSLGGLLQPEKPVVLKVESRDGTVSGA
Source text: as §1, §2, §3

[4] = target: CYP3A4 enzyme expressed in Escherichia coli (Homo sapiens (Human), UniProt P08684); assay: CYP3A4 fluorescent MBI test; format: in vitro ADME; details: pre-reaction time 0 or 30 minutes, substrate 7-BFC; read-out: CYP3A4 MBI, difference between IC50 values with and without preincubation
Sequence of CYP3A4 enzyme expressed in Escherichia coli (P08684 whole entry): as above
Procedure: The CYP3A4 fluorescent MBI test is a test of investigating enhancement of CYP3A4 inhibition of a compound by a metabolism reaction, and the test was performed using, as CYP3A4 enzyme expressed in Escherichia coli and employing, as an index, a reaction in which 7-benzyloxytrifluoromethylcoumarin (7-BFC) is debenzylated by the CYP3A4 enzyme to produce a metabolite, 7-hydroxytrifluoromethylcoumarin (HFC) emitting fluorescent light.
The reaction conditions were as follows: substrate, 5.6 μmol/L 7-BFC; pre-reaction time, 0 or 30 minutes; reaction time, 15 minutes; reaction temperature, 25° C. (room temperature); CYP3A4 content (expressed in Escherichia coli), at pre-reaction […], at reaction […] (at 10-fold dilution); concentration of a compound of the present, 0.625, 1.25, 2.5, 5, 10, 20 μmol/L (six points).
An enzyme in a K-Pi buffer (pH 7.4) and a compound solution of the present invention as a pre-reaction mixture were added to a 96-well plate at the composition of the pre-reaction, a part of it was transferred to another 96-well plate so that it was 1/10 diluted by a substrate in a K-Pi buffer, NADPH as a co-factor was added to initiate a reaction as an index (without preincubation) and, after a predetermined time of a reaction, acetonitrile/0.5 mol/L Tris(trishydroxyaminomethane)=4/1 (V/V) was added to stop the reaction. In addition, NADPH was added to a remaining preincubation solution to initiate a preincubation (with preincubation) and, after a predetermined time of a preincubation, a part was transferred to another plate so that it was 1/10 diluted with a substrate and a K-Pi buffer to initiate a reaction as an index. After a predetermined time of a reaction, acetonitrile/0.5 mol/L Tris(trishydroxyaminomethane)=4/1 (V/V) was added to stop the reaction. For the plate on which each index reaction had been performed, a fluorescent value of 7-HFC which is a metabolite was measured with a fluorescent plate reader. (Ex=420 nm, Em=535 nm).

CRTH2 [5] = target: T1, CRTH2; assay: CRTH2 inhibitory activity in CRTH2-expressing cells (PGD2-induced intracellular calcium increase, K562); format: cell-based; details: 200 nM PGD2, read-out: IC50, inhibition of intracellular calcium concentration increase induced by PGD2
Procedure: CRTH2 inhibitory activities of compounds were determined as inhibition activity of intra-cellular calcium concentration increase induced by PGD2 in CRTH2-expressing cells.
CRTH2-expressing K562 cells were suspended at concentration of 2×10^6 cells/ml in buffer (10 mM HEPES, pH 7.4, 0.1% Bovine serum albumin). Cells were incubated with […] (4 μM) for 30 min at room temperature. Cells were washed, resuspended and mixed with various concentration of compounds of the present invention. After 2 min, cells were treated with 200 nM of PGD2. Then intracellular calcium concentration was measured using intracellular ion analyzer (FDSS3000). Inhibition ratio was defined by comparing intracellular calcium concentration increase with and without compound, and IC50 for each compound was calculated from inhibitory curve.

[6] = CRTH2 receptor binding, categorized AAAA/AAA

Structure (SMILES)	remaining rate after reaction (result heading prints '% inhibition') [1] [%]	Ki (CRTH2 [2]; [6]) [µM]	Ki (CRTH2 [2]) [µM]	IC50 (Human DP1 receptor) [µM]	IC50 (CYP2C9) [µM]	IC50 (CYP1A2) [µM]	IC50 (CYP2C19) [µM]	solubility at 16 h [3] [µM]	IC50 (CYP2D6) [µM]	IC50 (CYP3A4) [µM]	difference in IC50 with vs without preincubation [4] [µM]	IC50 (CRTH2 [5]) [µM]
CC(C)Oc1ccc(S(=O)(=O)N2C[C@@H](N3CCCC3)[C@@H](n3nc(CC(=O)O)c4ccc(F)cc43)C2)cc1 [Compound I-47]	91.8	< 0.1	0.016	0.1 to 5	–	–	–	–	–	–	–	–
CC(C)Oc1ccc(S(=O)(=O)N2C[C@H](n3nc(CC(=O)O)c4ccc(F)cc43)C[C@H]2CO)cc1 [Compound I-9]	98.7	< 0.1	0.0062	0.1 to 5	> 20	> 20	> 20	> 50	> 20	> 20	≤ 3	–
CC(C)Oc1ccc(S(=O)(=O)N2CC[C@H](n3nc(CC(=O)O)c4ccc(F)cc43)[C@H](C)C2)cc1 [Compound I-75]	99.2	0.1 to 5	–	< 0.1	–	–	–	–	–	–	≤ 3	–
C[C@@H]1CN(S(=O)(=O)c2ccc(Cl)cc2)C[C@@H]1n1nc(CC(=O)O)c2ccc(F)cc21 [Compound I-49]	94.7	< 0.1	0.00059	0.1 to 5	> 20	> 20	> 20	> 50	> 20	> 20	–	0.086
CC(C)Oc1ccc(S(=O)(=O)N2CC[C@H](n3nc(CC(=O)O)c4ccc(F)cc43)[C@@H](C)C2)cc1 [Compound I-74]	–	0.1 to 5	0.68	< 0.1	> 20	> 20	> 20	> 50	> 20	> 20	–	–
